Read-outs that look alike come from different tables or passages of the source.
What was measured:
[1] = test system: Cabbage Looper (Trichoplusia ni) ("CL"), second instar larvae; assay: Bioassay on cabbage looper (CL), 128-well diet tray assay; type: in vivo; details: for pest or weed control at 50 µg/cm2: Trichoplusia ni; for CL rating: Table ABC, species CL, C = not tested, D = no activity noticed
Procedure, shortened: (§1)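 Covered trays were held at 25° C. under a 14:10 light-dark cycle for five to seven days. Percent mortality was then scored in each well, and activity across eight wells was averaged.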

[2] = test system: Beet Armyworm (Spodoptera exigua) ("BAW"), second instar larvae; assay: Bioassay on beet armyworm (BAW), 128-well diet tray assay; type: in vivo; details: for pest or weed control at 50 µg/cm2: Spodoptera exigua; for BAW rating: Table ABC, species BAW, C = not tested, D = no activity noticed
Procedure, shortened: as §1

[3] = read-out: CL (Biological Results, rating)
[4] = read-out: BAW (Biological Results, rating)

Structure (SMILES)	pest or weed control at 50 µg/cm2 ([1]; read-out: CL rating) [%]	pest or weed control at 50 µg/cm2 ([2]; read-out: BAW rating) [%]	pest or weed control at 50 µg/cm2 [1, 3] [%]	pest or weed control at 50 µg/cm2 [2, 4] [%]	further results
Cc1ccc(COCC(F)(F)F)c(N2C(=O)CS/C2=N\C(=O)Nc2ccc(-c3ncn(-c4ccc(S(F)(F)(F)(F)F)cc4)n3)cc2C#N)c1 [Compound J569, (Z)-1-(2-Cyano-4-(1-(4-(pentafluoro-λ^6-sulfaneyl)phenyl)-1H-1,2,4-triazol-3-yl)phenyl)-3-(3-(5-methyl-2-((2,2,2-trifluoroethoxy)methyl)phenyl)-4-oxothiazolidin-2-ylidene)urea]	50 to 100	50 to 100	–	–	–
CN(C)c1ccc(OCCC(F)(F)F)c(N2C(=O)CS/C2=N\C(=O)Nc2ccc(-c3ncn(-c4ccc(OC(F)(F)F)cc4)n3)cc2)c1 [Compound J321, (Z)-1-(3-(5-(Dimethylamino)-2-(3,3,3-trifluoropropoxy)phenyl)-4-oxothiazolidin-2-ylidene)-3-(4-(1-(4-(trifluoromethoxy)phenyl)-1H-1,2,4-triazol-3-yl)phenyl)urea]	–	–	50 to 100	50 to 100	–
Cc1ccc(OCC(F)(F)F)c(N2C(=O)CS/C2=N\C(=O)Nc2ccc(-c3ncn(-c4ccc(OC(F)(F)F)cc4)n3)cc2C)c1 [Compound J55, (Z)-1-(3-(5-Methyl-2-(2,2,2-trifluoroethoxy)phenyl)-4-oxothiazolidin-2-ylidene)-3-(2-methyl-4-(1-(4-(trifluoromethoxy)phenyl)-1H-1,2,4-triazol-3-yl)phenyl)urea]	–	–	50 to 100	50 to 100	–
CCOc1ccc(-n2cnc(-c3ccc(NC(=O)/N=C4\SCC(=O)N4c4cc(C)c(C)cc4COCC(F)(F)F)c(F)c3)n2)cc1 [Compound J620]	–	–	–	–	CL rating [1]: A (50-100); BAW rating [2]: A (50-100)
Cc1ccc(OCCC(F)(F)F)c(N2C(=O)CS/C2=N\C(=O)Nc2ccc(-c3ncn(-c4ccc(S(=O)(=O)C(F)(F)F)cc4)n3)cc2C)c1 [Compound J373, (Z)-1-(3-(5-Methyl-2-(3,3,3-trifluoropropoxy)phenyl)-4-oxothiazolidin-2-ylidene)-3-(2-methyl-4-(1-(4-((trifluoromethyl)sulfonyl)phenyl)-1H-1,2,4-triazol-3-yl)phenyl)urea]	50 to 100	50 to 100	–	–	–
Cc1ccc(COCC(F)(F)F)c(N2C(=O)CS/C2=N\C(=O)Nc2ccc(-c3ncn(-c4ccc(OC(F)(F)F)cn4)n3)cc2F)c1 [Compound J237, (Z)-1-(2-Fluoro-4-(1-(5-(trifluoromethoxy)pyridin-2-yl)-1H-1,2,4-triazol-3-yl)phenyl)-3-(3-(5-methyl-2-((2,2,2-trifluoroethoxy)methyl)phenyl)-4-oxothiazolidin-2-ylidene)urea]	–	–	50 to 100	50 to 100	–
Cc1cc(-c2cn(-c3ccc(C(F)(F)F)cc3)cn2)ccc1NC(=O)/N=C1\SCC(=O)N1c1cc(N(C)C)ccc1C(C)C [Compound J524, (Z)-1-(3-(5-(Dimethylamino)-2-isopropylphenyl)-4-oxothiazolidin-2-ylidene)-3-(2-methyl-4-(1-(4-(trifluoromethyl)phenyl)-1H-imidazol-4-yl)phenyl)urea]	50 to 100	50 to 100	–	–	–
COC(C)c1ccc(C)cc1N1C(=O)CS/C1=N\C(=O)Nc1ccc(-n2cnc(-c3ccc(C(F)(F)F)cc3)n2)cc1F (centres unmarked) [Compound J695, (Z)-1-(2-Fluoro-4-(3-(4-(trifluoromethyl)phenyl)-1H-1,2,4-triazol-1-yl)phenyl)-3-(3-(2-(1-methoxyethyl)-5-methylphenyl)-4-oxothiazolidin-2-ylidene)urea]	50 to 100	50 to 100	–	–	–
CC(C)c1ccc(N(C)C)cc1N1C(=O)CS/C1=N\C(=O)Nc1c(F)cc(-c2ncn(-c3ccc(OC(F)(F)F)cc3)n2)cc1F [Compound J82, (Z)-1-(2,6-Difluoro-4-(1-(4-(trifluoromethoxy)phenyl)-1H-1,2,4-triazol-3-yl)phenyl)-3-(3-(5-(dimethylamino)-2-isopropylphenyl)-4-oxothiazolidin-2-ylidene)urea]	–	–	50 to 100	50 to 100	–
Cc1ccc(OCCC(F)(F)F)c(N2C(=O)CS/C2=N\C(=O)Nc2ccc(-c3cn(-c4ccc(C(F)(F)F)cn4)cn3)cc2F)c1 [Compound J484, (Z)-1-(2-Fluoro-4-(1-(5-(trifluoromethyl)pyridin-2-yl)-1H-imidazol-4-yl)phenyl)-3-(3-(5-methyl-2-(3,3,3-trifluoropropoxy)phenyl)-4-oxothiazolidin-2-ylidene)urea]	50 to 100	50 to 100	–	–	–
Cc1ccc(COCC(F)(F)F)c(N2C(=O)CS/C2=N\C(=O)Nc2ccc(-c3ncn(-c4ccc(OC(F)(F)F)cc4)n3)cc2C#N)c1 [Compound J245, (Z)-1-(2-Cyano-4-(1-(4-(trifluoromethoxy)phenyl)-1H-1,2,4-triazol-3-yl)phenyl)-3-(3-(5-methyl-2-((2,2,2-trifluoroethoxy)methyl)phenyl)-4-oxothiazolidin-2-ylidene)urea]	–	–	50 to 100	50 to 100	–
COC(C)c1ccc(C)cc1N1C(=O)CS/C1=N\C(=O)Nc1ccc(-c2ncn(-c3ccc(OC(F)(F)F)cc3)n2)cc1C(F)(F)F (centres unmarked) [Compound J117, (Z)-1-(3-(2-(1-Methoxyethyl)-5-methylphenyl)-4-oxothiazolidin-2-ylidene)-3-(4-(1-(4-(trifluoromethoxy)phenyl)-1H-1,2,4-triazol-3-yl)-2-(trifluoromethyl)phenyl)urea]	–	–	50 to 100	50 to 100	–
Cc1ccc(OCCC(F)(F)F)c(N2C(=O)CS/C2=N\C(=O)Nc2ccc(-c3ncn(-c4ccc(SC(F)(F)F)cc4)n3)cc2)c1 [Compound J387, (Z)-1-(3-(5-Methyl-2-(3,3,3-trifluoropropoxy)phenyl)-4-oxothiazolidin-2-ylidene)-3-(4-(1-(4-((trifluoromethyl)thio)phenyl)-1H-1,2,4-triazol-3-yl)phenyl)urea]	50 to 100	50 to 100	–	–	–
Cc1ccc(COCC(F)(F)F)c(N2C(=O)CS/C2=N\C(=O)Nc2ccc(-c3ncn(-c4ccc(C(F)(F)F)cc4)n3)cc2F)c1C [Compound J680]	–	–	–	–	CL rating [1]: A (50-100); BAW rating [2]: A (50-100)
Cc1ccc(C(C)C)c(N2C(=O)CS/C2=N\C(=O)Nc2ccc(-c3cn(-c4ccc(C(F)(F)F)cc4)cn3)cc2)c1 [Compound J514, (Z)-1-(3-(2-Isopropyl-5-methylphenyl)-4-oxothiazolidin-2-ylidene)-3-(4-(1-(4-(trifluoromethyl)phenyl)-1H-imidazol-4-yl)phenyl)urea]	50 to 100	50 to 100	–	–	–
COc1ccc(COCC(F)(F)F)c(N2C(=O)CS/C2=N\C(=O)Nc2ccc(-c3ncn(-c4ccc(C(F)(F)F)cc4)n3)cc2C)c1 [Compound J580]	–	–	–	–	CL rating [1]: A (50-100); BAW rating [2]: A (50-100)
CCCN(CCC)c1ccc(C(C)C)c(N2C(=O)CS/C2=N\C(=O)Nc2ccc(-c3ncn(-c4ccc(OC(F)(F)F)cc4)n3)cc2C)c1 [Compound J130, (Z)-1-(3-(5-(Dipropylamino)-2-isopropylphenyl)-4-oxothiazolidin-2-ylidene)-3-(2-methyl-4-(1-(4-(trifluoromethoxy)phenyl)-1H-1,2,4-triazol-3-yl)phenyl)urea]	–	–	50 to 100	50 to 100	–
CCOCc1ccc(C)cc1N1C(=O)CS/C1=N\C(=O)Nc1ccc(-c2ncn(-c3ccc(C)cc3)n2)cc1F [Compound J753, (Z)-1-(3-(2-(Ethoxymethyl)-5-methylphenyl)-4-oxothiazolidin-2-ylidene)-3-(2-fluoro-4-(1-(p-tolyl)-1H-1,2,4-triazol-3-yl)phenyl)urea]	50 to 100	50 to 100	–	–	–
Cc1ccc(OCC(F)(F)F)c(N2C(=O)CS/C2=N\C(=O)Nc2ccc(-c3ncn(-c4ccc(OC(F)(F)F)cc4)n3)cc2Cl)c1 [Compound J40, (Z)-1-(2-Chloro-4-(1-(4-(trifluoromethoxy)phenyl)-1H-1,2,4-triazol-3-yl)phenyl)-3-(3-(5-methyl-2-(2,2,2-trifluoroethoxy)phenyl)-4-oxothiazolidin-2-ylidene)urea]	–	–	50 to 100	50 to 100	–
COC(C)c1ccc(C)cc1N1C(=O)CS/C1=N\C(=O)Nc1ccc(-c2ncn(-c3ccc(SC(F)(F)F)cc3)n2)cc1F (centres unmarked) [Compound J187, (Z)-1-(2-Fluoro-4-(1-(4-((trifluoromethyl)thio)phenyl)-1H-1,2,4-triazol-3-yl)phenyl)-3-(3-(2-(1-methoxyethyl)-5-methylphenyl)-4-oxothiazolidin-2-ylidene)urea]	–	–	50 to 100	50 to 100	–
COC(C)c1ccc(C)cc1N1C(=O)CS/C1=N\C(=O)Nc1ccc(-c2cn(-c3ccc(C(F)(F)F)cn3)cn2)cc1C (centres unmarked) [Compound J508, (Z)-1-(3-(2-(1-Methoxyethyl)-5-methylphenyl)-4-oxothiazolidin-2-ylidene)-3-(2-methyl-4-(1-(5-(trifluoromethyl)pyridin-2-yl)-1H-imidazol-4-yl)phenyl)urea]	50 to 100	50 to 100	–	–	–
Cc1cc(-c2ncn(-c3ccc(OCC#N)cc3)n2)ccc1NC(=O)/N=C1\SCC(=O)N1c1cc(N(C)C)ccc1C(C)C [Compound J357, (Z)-1-(4-(1-(4-(Cyanomethoxy)phenyl)-1H-1,2,4-triazol-3-yl)-2-methylphenyl)-3-(3-(5-(dimethylamino)-2-isopropylphenyl)-4-oxothiazolidin-2-ylidene)urea]	50 to 100	50 to 100	–	–	–

Reference: patent publication US20230077362A1 (CORTEVA AGRISCIENCE LLC, priority 2019, published 2023)
